Reference: US20090232838A1, “Ligands of melanocortin receptors” (priority 2005, published 2009)
Like-named read-outs stand apart in the source and are kept apart here. Where a SMILES comes first, the peptide text is derived from it. Bridges are numbered along the chain shown (N, C = ends). [ ]: non-standard residue; d: D form. 1Nal = N[C@@H](Cc1cccc2ccccc12)C(=O)O; d2Nal = N[C@H](Cc1ccc2ccccc2c1)C(=O)O

Experiments:
Format in all cases: cell-based
[1] = target: T1, hMC1-R (Homo sapiens, UniProt Q01726); assay: cyclic AMP bioassay, hMC1-R
T1 construct: expressed in transfected cells; host or cells: CHO-K1
T1 sequence (Q01726 whole entry): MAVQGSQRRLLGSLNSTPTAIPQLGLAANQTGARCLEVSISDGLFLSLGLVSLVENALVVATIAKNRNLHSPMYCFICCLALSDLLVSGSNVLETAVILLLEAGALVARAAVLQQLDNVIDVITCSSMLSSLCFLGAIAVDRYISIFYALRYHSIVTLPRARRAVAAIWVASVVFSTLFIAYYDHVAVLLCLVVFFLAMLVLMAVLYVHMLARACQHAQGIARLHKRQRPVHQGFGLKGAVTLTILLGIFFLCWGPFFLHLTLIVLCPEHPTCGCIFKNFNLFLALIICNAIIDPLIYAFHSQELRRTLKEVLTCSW

[2] = target: T2, hMC3-R (Homo sapiens, UniProt P41968); assay: cyclic AMP bioassay, hMC3-R
T2 construct: expressed in transfected cells; host or cells: CHO-K1
T2 sequence (P41968 whole entry): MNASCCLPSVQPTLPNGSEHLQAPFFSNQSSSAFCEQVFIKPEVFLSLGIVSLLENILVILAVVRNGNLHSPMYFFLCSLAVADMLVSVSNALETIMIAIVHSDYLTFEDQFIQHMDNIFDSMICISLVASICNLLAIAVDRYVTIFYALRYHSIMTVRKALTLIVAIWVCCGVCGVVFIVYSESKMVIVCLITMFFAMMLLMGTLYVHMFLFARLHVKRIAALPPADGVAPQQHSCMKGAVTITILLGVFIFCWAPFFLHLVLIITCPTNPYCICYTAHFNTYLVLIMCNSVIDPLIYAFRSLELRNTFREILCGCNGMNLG
Description: Intracellular cyclic AMP (cAMP) levels were determined by an electrochemiluminescence (ECL) assay (Meso Scale Discovery®, Gaithersburg, Md.; referred to hereinafter as MSD). […] Transgenic CHO-K1 cells stably expressing hMC receptor subtypes 1, 3, 4 or 5 were dispensed at a density of approximately 7,000 cells/well in 384-well Multi-Arrays plates (MSD) containing integrated carbon electrodes and coated with anti-CAMP antibody. Increasing concentrations of the test compounds were added and the cells were incubated for approximately 40 minutes at approximately 37° C. […] At the end of the second incubation period read buffer (Tris-buffered solution containing an ECL co-reactant and Triton X-100 at ph 7.8) was added and the cAMP levels in the cell lysates were immediately determined by ECL detection with a Sector Imager 6000 Reader® (MSD). Data were analyzed using a computer-assisted non-linear regression analysis (XL fit; IDBS) and reported as either an EC50 value or a Kb value.
The Kb value reflects the potency of an antagonist and is determined by Schild analysis. In brief, concentration-response curves of an agonist are carried out in the presence of increasing concentrations of an antagonist. […] It is calculated by extrapolating the line on a Schild plot to zero on the y-axis.

[3] = target: T3, hMC4-R (Homo sapiens, UniProt P32245); assay: cyclic AMP bioassay, hMC4-R
T3 construct: expressed in transfected cells; host or cells: CHO-K1
T3 sequence (P32245 whole entry): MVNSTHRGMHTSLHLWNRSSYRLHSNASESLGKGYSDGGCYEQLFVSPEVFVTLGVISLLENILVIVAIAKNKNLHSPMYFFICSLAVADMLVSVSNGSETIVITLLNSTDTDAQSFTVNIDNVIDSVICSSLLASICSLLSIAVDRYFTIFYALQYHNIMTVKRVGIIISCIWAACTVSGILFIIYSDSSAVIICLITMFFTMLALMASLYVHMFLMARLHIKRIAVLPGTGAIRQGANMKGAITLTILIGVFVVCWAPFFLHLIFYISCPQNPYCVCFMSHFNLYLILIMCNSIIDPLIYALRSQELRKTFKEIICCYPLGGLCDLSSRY

[4] = target: T4, hMC5-R (Homo sapiens, UniProt P33032); assay: cyclic AMP bioassay, hMC5-R
T4 construct: expressed in transfected cells; host or cells: CHO-K1
T4 sequence (P33032 whole entry): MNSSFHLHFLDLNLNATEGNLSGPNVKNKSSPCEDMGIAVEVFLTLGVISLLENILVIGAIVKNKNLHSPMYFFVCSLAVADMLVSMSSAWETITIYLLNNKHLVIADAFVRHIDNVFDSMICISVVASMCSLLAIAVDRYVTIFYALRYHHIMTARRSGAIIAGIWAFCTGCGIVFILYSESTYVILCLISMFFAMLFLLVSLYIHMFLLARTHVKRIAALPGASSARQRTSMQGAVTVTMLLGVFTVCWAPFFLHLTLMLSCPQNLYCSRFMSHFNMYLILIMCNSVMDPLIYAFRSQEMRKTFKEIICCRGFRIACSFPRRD

[5] = Table 3A, cAMP in CHO-K1 cells, antagonist potency by Schild analysis, read-out: Kb hMC3-R
[6] = Table 3A, cAMP in CHO-K1 cells, antagonist potency by Schild analysis, read-out: Kb hMC4-R

| Compound | EC50 [1] | Kb [2] | Kb [3] | EC50 [4] | Kb [2, 5] | Kb [3, 6] | EC50 ([1]; Table 3A, cAMP in CHO-K1 cells, agonist, read-out: EC50 hMC1-R) | EC50 ([4]; Table 3A, cAMP in CHO-K1 cells, agonist, read-out: EC50 hMC5-R) |
| --- | --- | --- | --- | --- | --- | --- | --- | --- |
| CC(=O)N[C@H]1CSSC[C@@H](C(=O)N2CCC[C@H]2C(=O)N2CCC[C@H]2C(=O)N[C@@H](CCCCN)C(=O)N[C@@H](CC(=O)O)C(=O)NCCC(=O)N[C@@H](CCCNC(=N)N)C(=O)N[C@@H](CCCNC(=N)N)C(=O)N[C@@H](CCCNC(=N)N)C(=O)N[C@@H](CCCNC(=N)N)C(=O)N[C@@H](CCCNC(=N)N)C(=O)N[C@@H](CCC(N)=O)C(=O)N[C@@H](CCCNC(=N)N)C(=O)N[C@@H](CCCNC(=N)N)C(=O)N[C@@H](CCCNC(=N)N)C(N)=O)NC(=O)[C@H](C)NC(=O)[C@H](Cc2ccc3ccccc3c2)NC(=O)[C@H](CCCNC(=N)N)NC(=O)[C@@H](Cc2ccc3ccccc3c2)NC(=O)[C@H](Cc2c[nH]cn2)NC(=O)[C@H](CCC(=O)O)NC1=O | 35.2 nM | 22.9 nM | 12.6 nM | 199 nM | – | – | – | – |
| CC(=O)N[C@H]1CSSC[C@@H](C(=O)N2CCC[C@H]2C(=O)N2CCC[C@H]2C(=O)N[C@@H](CCCCN)C(=O)N[C@@H](CC(=O)O)C(N)=O)NC(=O)[C@H](C)NC(=O)[C@H](Cc2cccc3ccccc23)NC(=O)[C@H](CCCNC(=N)N)NC(=O)[C@@H](Cc2ccc3ccccc3c2)NC(=O)[C@H](Cc2c[nH]cn2)NC(=O)[C@H](CCC(=O)O)NC1=O [Ac-c(Cys-Glu-His-D-2-Nal-Arg-1-Nal-Ala-Cys)-Pro-Pro-Lys-Asp-NH2] (Ac-CEH[d2Nal]R[1Nal]ACPPKD-NH2; disulfide 1-8) | 269 nM | 105 nM | 5.92 nM | 104 nM | – | – | – | – |
| CC(=O)N[C@H]1CSSC[C@@H](C(=O)N2CCC[C@H]2C(=O)N2CCC[C@H]2C(=O)N[C@@H](CCCCN)C(=O)N[C@@H](CC(=O)O)C(=O)NCCC(=O)N[C@@H](Cc2ccc(O)cc2)C(=O)NCC(=O)N[C@@H](CCCNC(=N)N)C(=O)N[C@@H](CCCCN)C(=O)N[C@@H](CCCCN)C(=O)N[C@@H](CCCNC(=N)N)C(=O)N[C@@H](CCCNC(=N)N)C(=O)N[C@@H](CCC(N)=O)C(=O)N[C@@H](CCCNC(=N)N)C(=O)N[C@@H](CCCNC(=N)N)C(=O)N[C@@H](CCCNC(=N)N)C(N)=O)NC(=O)[C@H](C)NC(=O)[C@H](Cc2cccc3ccccc23)NC(=O)[C@H](CCCNC(=N)N)NC(=O)[C@@H](Cc2ccc3ccccc3c2)NC(=O)[C@H](Cc2c[nH]cn2)NC(=O)[C@H](CCC(=O)O)NC1=O | 43.3 nM | 215 nM | 5.87 nM | 1290 nM | – | – | – | – |
| CCCC[C@H](NC(=O)COCCOCCNC(=O)[C@H](CCCNC(=N)N)NC(=O)[C@H](CCCNC(=N)N)NC(=O)[C@H](CCCNC(=N)N)NC(=O)[C@H](CCC(N)=O)NC(=O)[C@H](CCCNC(=N)N)NC(=O)[C@H](CCCNC(=N)N)NC(=O)[C@H](CCCCN)NC(=O)[C@H](CCCCN)NC(=O)[C@H](CCCNC(=N)N)NC(=O)CNC(=O)[C@@H](N)Cc1ccc(O)cc1)C(=O)N[C@H]1CC(=O)NCCCC[C@@H](C(N)=O)NC(=O)[C@H](Cc2c[nH]c3ccccc23)NC(=O)[C@H](CCCNC(=N)N)NC(=O)[C@@H](Cc2ccc3ccccc3c2)NC(=O)[C@H](Cc2c[nH]cn2)NC1=O | – | – | – | – | 395 nM | 16.8 nM | – | – |
| CC(=O)N[C@H]1CSSC[C@@H](C(=O)N2CCC[C@H]2C(=O)N2CCC[C@H]2C(=O)N[C@@H](CCCCN)C(=O)N[C@@H](CC(=O)O)C(=O)NCCC(=O)N[C@@H](Cc2ccc(O)cc2)C(=O)NCC(=O)N[C@@H](CCCNC(=N)N)C(=O)N[C@@H](CCCCN)C(=O)N[C@@H](CCCCN)C(=O)N[C@@H](CCCNC(=N)N)C(=O)N[C@@H](CCCNC(=N)N)C(=O)N[C@@H](CCCNC(=N)N)C(=O)N[C@@H](CCC(N)=O)C(=O)N[C@@H](CCCNC(=N)N)C(=O)N[C@@H](CCCNC(=N)N)C(N)=O)NC(=O)[C@H](C)NC(=O)[C@H](Cc2c[nH]c3ccccc23)NC(=O)[C@H](CCCNC(=N)N)NC(=O)[C@@H](Cc2ccc3ccccc3c2)NC(=O)[C@H](Cc2c[nH]cn2)NC(=O)[C@H](CCC(=O)O)NC1=O | – | – | – | – | 20.8 nM | 7.31 nM | 16.4 nM | 44.2 nM |
| CCCC[C@H](NC(C)=O)C(=O)N[C@H]1CC(=O)NCCCC[C@@H](C(=O)NCCC(=O)N[C@@H](Cc2ccc(O)cc2)C(=O)NCC(=O)N[C@@H](CCCNC(=N)N)C(=O)N[C@@H](CCCCN)C(=O)N[C@@H](CCCCN)C(=O)N[C@@H](CCCNC(=N)N)C(=O)N[C@@H](CCCNC(=N)N)C(=O)N[C@@H](CCC(N)=O)C(=O)N[C@@H](CCCNC(=N)N)C(=O)N[C@@H](CCCNC(=N)N)C(=O)N[C@@H](CCCNC(=N)N)C(N)=O)NC(=O)[C@H](Cc2c[nH]c3ccccc23)NC(=O)[C@H](CCCNC(=N)N)NC(=O)[C@@H](Cc2ccc3ccccc3c2)NC(=O)[C@H](Cc2c[nH]cn2)NC1=O | – | – | – | – | 220 nM | 4.07 nM | – | – |
| CC(=O)N[C@H]1CSSC[C@@H](C(=O)N2CCC[C@H]2C(=O)N2CCC[C@H]2C(=O)N[C@@H](CCCCN)C(=O)N[C@@H](CC(=O)O)C(=O)NCCC(=O)N[C@@H](CCCNC(=N)N)C(=O)N[C@@H](CCCNC(=N)N)C(=O)N[C@@H](CCCCN)C(=O)N[C@@H](CCCNC(=N)N)C(=O)N[C@@H](CCCNC(=N)N)C(=O)N[C@@H](CCC(N)=O)C(=O)N[C@@H](CCCNC(=N)N)C(=O)N[C@@H](CCCNC(=N)N)C(=O)N[C@@H](CCCNC(=N)N)C(N)=O)NC(=O)[C@H](C)NC(=O)[C@H](Cc2cccc3ccccc23)NC(=O)[C@H](CCCNC(=N)N)NC(=O)[C@@H](Cc2ccc3ccccc3c2)NC(=O)[C@H](Cc2c[nH]cn2)NC(=O)[C@H](CCC(=O)O)NC1=O | 70.4 nM | 286 nM | 18.6 nM | > 10000 nM | – | – | – | – |
| CC(=O)N[C@H]1CSSC[C@@H](C(=O)N2CCC[C@H]2C(=O)N2CCC[C@H]2C(=O)N[C@@H](CCCCN)C(=O)N[C@@H](CC(=O)O)C(=O)NCCC(=O)N[C@@H](Cc2ccc(O)cc2)C(=O)NCC(=O)N[C@@H](CCCNC(=N)N)C(=O)N[C@@H](CCCCN)C(=O)N[C@@H](CCCCN)C(=O)N[C@@H](CCCNC(=N)N)C(=O)N[C@@H](CCC(N)=O)C(=O)N[C@@H](CCCNC(=N)N)C(=O)N[C@@H](CCCNC(=N)N)C(=O)N[C@@H](CCCNC(=N)N)C(=O)N[C@@H](CCCNC(=N)N)C(N)=O)NC(=O)[C@H](C)NC(=O)[C@H](Cc2c[nH]c3ccccc23)NC(=O)[C@H](CCCNC(=N)N)NC(=O)[C@@H](Cc2ccc3ccccc3c2)NC(=O)[C@H](Cc2c[nH]cn2)NC(=O)[C@H](CCC(=O)O)NC1=O | 15.2 nM | 14.6 nM | 4.52 nM | 36.8 nM | – | – | – | – |
| CCCC[C@H](NC(C)=O)C(=O)N[C@H]1CC(=O)NCCCC[C@@H](C(=O)N2CCC[C@H]2C(=O)N2CCC[C@H]2C(=O)N[C@@H](CCCCN)C(=O)N[C@@H](CC(=O)O)C(=O)N[C@@H](Cc2ccc(O)cc2)C(=O)NCC(=O)N[C@@H](CCCNC(=N)N)C(=O)N[C@@H](CCCCN)C(=O)N[C@@H](CCCCN)C(=O)N[C@@H](CCCNC(=N)N)C(=O)N[C@@H](CCCNC(=N)N)C(=O)N[C@@H](CCC(N)=O)C(=O)N[C@@H](CCCNC(=N)N)C(=O)N[C@@H](CCCNC(=N)N)C(=O)N[C@@H](CCCNC(=N)N)C(N)=O)NC(=O)[C@H](Cc2c[nH]c3ccccc23)NC(=O)[C@H](CCCNC(=N)N)NC(=O)[C@@H](Cc2ccc3ccccc3c2)NC(=O)[C@H](Cc2c[nH]cn2)NC1=O | – | – | – | – | 14.1 nM | 22.8 nM | – | – |
| CC(=O)N[C@H]1CSSC[C@@H](C(=O)N2CCC[C@H]2C(=O)N2CCC[C@H]2C(=O)N[C@@H](CCCCN)C(=O)N[C@@H](CC(=O)O)C(=O)N[C@@H](Cc2ccc(O)cc2)C(=O)NCC(=O)N[C@@H](CCCNC(=N)N)C(=O)N[C@@H](CCCCN)C(=O)N[C@@H](CCCCN)C(=O)N[C@@H](CCCNC(=N)N)C(=O)N[C@@H](CCCNC(=N)N)C(=O)N[C@@H](CCC(N)=O)C(=O)N[C@@H](CCCNC(=N)N)C(=O)N[C@@H](CCCNC(=N)N)C(=O)N[C@@H](CCCNC(=N)N)C(N)=O)NC(=O)CNC(=O)[C@H](Cc2c[nH]c3ccccc23)NC(=O)[C@H](CCCNC(=N)N)NC(=O)[C@@H](Cc2ccc3ccccc3c2)NC(=O)[C@H](Cc2c[nH]cn2)NC(=O)[C@H](CCC(=O)O)NC1=O | – | – | – | – | 233 nM | 26 nM | – | – |
| CC(=O)N[C@H]1CSSC[C@@H](C(=O)N2CCC[C@H]2C(=O)N2CCC[C@H]2C(=O)N[C@@H](CCCCN)C(=O)N[C@@H](CC(=O)O)C(=O)NCCOCCOCC(=O)N[C@@H](Cc2ccc(O)cc2)C(=O)NCC(=O)N[C@@H](CCCNC(=N)N)C(=O)N[C@@H](CCCCN)C(=O)N[C@@H](CCCCN)C(=O)N[C@@H](CCCNC(=N)N)C(=O)N[C@@H](CCCNC(=N)N)C(=O)N[C@@H](CCC(N)=O)C(=O)N[C@@H](CCCNC(=N)N)C(=O)N[C@@H](CCCNC(=N)N)C(=O)N[C@@H](CCCNC(=N)N)C(N)=O)NC(=O)CNC(=O)[C@H](Cc2c[nH]c3ccccc23)NC(=O)[C@H](CCCNC(=N)N)NC(=O)[C@@H](Cc2ccc3ccccc3c2)NC(=O)[C@H](Cc2c[nH]cn2)NC(=O)[C@H](CCC(=O)O)NC1=O | – | – | – | – | 17.7 nM | 1.49 nM | – | – |
| CCCC[C@H](NC(=O)[C@H](CCCNC(=N)N)NC(=O)[C@H](CCCNC(=N)N)NC(=O)[C@H](CCCNC(=N)N)NC(=O)[C@H](CCC(N)=O)NC(=O)[C@H](CCCNC(=N)N)NC(=O)[C@H](CCCNC(=N)N)NC(=O)[C@H](CCCCN)NC(=O)[C@H](CCCCN)NC(=O)[C@H](CCCNC(=N)N)NC(=O)CNC(=O)[C@@H](N)Cc1ccc(O)cc1)C(=O)N[C@H]1CC(=O)NCCCC[C@@H](C(N)=O)NC(=O)[C@H](Cc2c[nH]c3ccccc23)NC(=O)[C@H](CCCNC(=N)N)NC(=O)[C@@H](Cc2ccc3ccccc3c2)NC(=O)[C@H](Cc2c[nH]cn2)NC1=O | – | – | – | – | 4500 nM | 105 nM | – | – |
| CCCC[C@H](N)C(=O)N[C@H]1CC(=O)NCCCC[C@@H](C(=O)NCCC(=O)N[C@@H](Cc2ccc(O)cc2)C(=O)NCC(=O)N[C@@H](CCCNC(=N)N)C(=O)N[C@@H](CCCCN)C(=O)N[C@@H](CCCCN)C(=O)N[C@@H](CCCNC(=N)N)C(=O)N[C@@H](CCCNC(=N)N)C(=O)N[C@@H](CCC(N)=O)C(=O)N[C@@H](CCCNC(=N)N)C(=O)N[C@@H](CCCNC(=N)N)C(=O)N[C@@H](CCCNC(=N)N)C(N)=O)NC(=O)[C@H](Cc2c[nH]c3ccccc23)NC(=O)[C@H](CCCNC(=N)N)NC(=O)[C@@H](Cc2ccc3ccccc3c2)NC(=O)[C@H](Cc2c[nH]cn2)NC1=O | – | – | – | – | 207 nM | 18.5 nM | – | – |
